In article PMC6935173, “Characterization of a vacuolar sucrose transporter, HbSUT5, from Hevea brasiliensis: involvement in latex production through regulation of intracellular sucrose transport in the bark and laticifers” (BMC Plant Biology, 2019):

T1: HbSUT5 (Hevea brasiliensis, UniProt A0T058)
T1 construct: gene SUT5; ORF primers give start MAIPQ
T1 sequence (A0T058 1-498): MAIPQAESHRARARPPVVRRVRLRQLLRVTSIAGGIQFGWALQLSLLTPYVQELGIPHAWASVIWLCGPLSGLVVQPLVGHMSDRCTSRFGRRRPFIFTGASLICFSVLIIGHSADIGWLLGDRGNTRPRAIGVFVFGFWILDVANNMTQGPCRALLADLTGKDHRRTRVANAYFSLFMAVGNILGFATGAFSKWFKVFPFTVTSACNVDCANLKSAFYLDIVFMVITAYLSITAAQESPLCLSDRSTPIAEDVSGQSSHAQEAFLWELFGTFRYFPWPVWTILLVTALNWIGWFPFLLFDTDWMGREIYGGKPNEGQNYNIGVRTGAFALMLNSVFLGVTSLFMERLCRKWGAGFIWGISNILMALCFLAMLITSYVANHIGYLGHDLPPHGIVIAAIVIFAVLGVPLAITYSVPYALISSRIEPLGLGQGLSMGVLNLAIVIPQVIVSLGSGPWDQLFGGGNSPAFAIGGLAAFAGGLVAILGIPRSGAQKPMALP

B1: HbSUT5 (Hevea brasiliensis) (protein)
chain: MAIPQAESHRARARPPVVRRVRLRQLLRVTSIAGGIQFGWALQLSLLTPYVQELGIPHAWASVIWLCGPLSGLVVQPLVGHMSDRCTSRFGRRRPFIFTGASLICFSVLIIGHSADIGWLLGDRGNTRPRAIGVFVFGFWILDVANNMTQGPCRALLADLTGKDHRRTRVANAYFSLFMAVGNILGFATGAFSKWFKVFPFTVTSACNVDCANLKSAFYLDIVFMVITAYLSITAAQESPLCLSDRSTPIAEDVSGQSSHAQEAFLWELFGTFRYFPWPVWTILLVTALNWIGWFPFLLFDTDWMGREIYGGKPNEGQNYNIGVRTGAFALMLNSVFLGVTSLFMERLCRKWGAGFIWGISNILMALCFLAMLITSYVANHIGYLGHDLPPHGIVIAAIVIFAVLGVPLAITYSVPYALISSRIEPLGLGQGLSMGVLNLAIVIPQVIVSLGSGPWDQLFGGGNSPAFAIGGLAAFAGGLVAILGIPRSGAQKPMALP
notes: ORF primers give start MAIPQ

Assays:
HbSUT5 = biological target: T1, HbSUT5; test: competition with […]-sucrose uptake in yeast SEY6210; format: cell-based
[1] = substrate: OC[C@H]1O[C@@](CO)(O[C@H]2O[C@H](CO)[C@@H](O)[C@H](O)[C@H]2O)[C@@H](O)[C@@H]1O; test: cells, lysate or membranes; format: cell-based, Hevea brasiliensis; settings: pH 5.5, 0.5-8 mM sucrose, labelled compound, H+ symport, whole yeast cells

Molecule	activity at 10000 µM (HbSUT5) [%]	Km [1] [µM]
OC[C@H]1O[C@H](O[C@H]2[C@H](O)[C@@H](O)C(O)O[C@@H]2CO)[C@H](O)[C@@H](O)[C@@H]1O (some centres unmarked) [Maltose]	44 ± 3.4	
B1		2030
